Measurements from patent US6936628B2, “Oral administration of epothilones” (Bristol-Myers Squibb Company, priority 2002, dated 2005).
Where “and” joins values, the source holds several entries; their conditions need not be identical. Equal entries are not always repeated. Where two headings read alike, the source gives them in different places.

Assays:
[1] = Oral bioavailability in humans; conditions: in vivo, human patients
Source text: Compound A was well absorbed orally, providing a favorable drug exposure profile that is consistant with efficacious exposure in preclinical cancer models.

[2] = Single dose pharmacokinetic study in dogs; type: in vivo, beagle dogs
Method: The vehicle used for both IV and oral dose was propylene glycol:ethanol:phosphate buffer (pH 7.4-8.0) (40:5:55). […] The VSS value after IV administration was 4.7 L/kg, which is greater than the reported total body water of 0.6 L/kg in dogs, indicating significant extravascular distribution of Compound A. The T-HALF of Compound A was 3.9 and 3.1 h after IV and oral administration, respectively.

[3] = Stability of diluted solutions; type: physicochemical; conditions: diluted with 0.9% Sodium Chloride Injection, 5° C. or room temperature and room light
[4] = test system: human ovarian carcinoma xenograft A2780; test: Antitumor activity by parenteral administration to rats, A2780 xenograft; type: in vivo, nude rats
Method: The required number of animals needed to detect a meaningful response were pooled at the start of the experiment and each was given a subcutaneous implant of a tumor fragment (≈50 mg) with a 13-gauge trocar. For treatment of early-stage tumors, the animals were again pooled before distribution to the various treatment and control groups. For treatment of animals with advanced-stage disease, tumors were allowed to grow to the pre-determined size window (tumors outside the range were excluded) and animals were evenly distributed to various treatment and control groups. Treatment of each animal was based on individual body weight. Treated animals were checked daily for treatment related toxicity/mortality. Each group of animals was weighed before the initiation of treatment (Wt1) and then again following the last treatment dose (Wt2). The difference in body weight (Wt2−Wt1) provides a measure of treatment-related toxicity.
Tumor response was determined by measurement of tumors with a caliper twice a week, until the tumors reach a predetermined “target” size of 1 gm. Tumor weights (mg) were estimated from the formula: Tumor weight=(length×width^2)÷2
Antitumor activity was evaluated at the maximum tolerated dose (MTD) which is defined as the dose level immediately […] which excessive toxicity (i.e. more than one death) occurred. The MTD was frequently equivalent to OD. When death occurred, the day of death was recorded. Treated mice dying prior to having their tumors reach target size were considered to have died from drug toxicity. No control mice died bearing tumors less than target size. Treatment groups with more than one death caused by drug toxicity were considered to have had excessively toxic treatments and their data were not included in the evaluation of a compound's antitumor efficacy.
Tumor response end-point was expressed in terms of tumor growth delay (T−C value), defined as the difference in time (days) required for the treated tumors (T) to reach a predetermined target size compared to those of the control group (C).
To estimate tumor cell kill, the tumor volume doubling time was first calculated with the formula: TVDT=Median time (days) for control tumors to reach target size−Median time (days) for control tumors to reach half the target size and Log cell kill=T−C÷(3.32×TVDT)
Compound A was evaluated versus the human ovarian carcinoma xenograft A2780 grown in nude rats. […] In comparison, Compound B produced 3.3 LCK at its MTD (2.4 mg/kg/inj, IV, every 8 days×2).

Pharmacokinetics in mice = type: in vivo; conditions: nude mice
Method: The pharmacokinetics of Compound A was evaluated in nude mice after IV (5 mg/kg) and oral (15 mg/kg) administration (n=15 mice/group). Compound A was dissolved in a mixture of cremophor:ethanol:water (10:10:80) and cremophor:ethanol:phosphate buffer, pH 8 (10:10:80) for the preparation of IV and oral doses, respectively. Plasma concentrations of Compound A were determined at 10 and 45 min, and 2, 4, and 6 hours postdose from 3 mice/time point/group. Composite plasma concentration-time profiles were constructed for pharmacokinetic analysis. […] The VSS values was 38 L/kg which is greater than total body water of about 0.7 L/kg, indicating significant extravascular distribution. The T-HALF value, both after IV and oral administration, was 3.3 h.

CYP3A4 = CYP3A4 (Homo sapiens, UniProt P08684); test: Metabolism by specific CYP enzymes (human liver microsomes with specific inhibitors); type: in vitro ADME
Sequence of CYP3A4 (P08684 whole entry): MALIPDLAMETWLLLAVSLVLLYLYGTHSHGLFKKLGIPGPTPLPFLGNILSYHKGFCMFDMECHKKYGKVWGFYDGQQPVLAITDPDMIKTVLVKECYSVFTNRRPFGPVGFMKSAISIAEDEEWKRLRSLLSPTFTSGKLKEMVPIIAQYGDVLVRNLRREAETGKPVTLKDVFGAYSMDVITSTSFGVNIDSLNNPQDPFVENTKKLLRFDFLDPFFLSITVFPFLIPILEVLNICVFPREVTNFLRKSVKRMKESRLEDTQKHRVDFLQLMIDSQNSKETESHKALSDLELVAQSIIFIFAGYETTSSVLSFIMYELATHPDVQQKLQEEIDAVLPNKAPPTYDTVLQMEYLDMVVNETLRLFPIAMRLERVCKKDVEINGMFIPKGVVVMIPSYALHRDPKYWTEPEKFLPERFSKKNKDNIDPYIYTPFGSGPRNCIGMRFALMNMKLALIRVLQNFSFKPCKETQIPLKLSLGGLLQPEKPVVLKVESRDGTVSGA
Method: Compound A was incubated with human liver microsomes along with compounds specific for the inhibition of individual cytochrome P450s commonly involved in drug metabolism. The inhibitors used were; furafylline (CYP1A2), sulfaphenazole (CYP2C9), tranylcypromine (CYP2C19), quinidine (CYP2D6), troleandomycin (CYP3A4), and ketoconazole (CYP3A4).

[5] = Liver S9 incubation, human; conditions: human liver S9, 20 μM
[6] = Plasma apparent steady-state concentration after 10-h IV infusion
[7] = rat, in vivo
[8] = vehicle 1 versus vehicle 2
Method: In another pharmacokinetic study, fasted male Sprague-Dawley rats, assigned to two IA groups (2 mg/kg) and one oral (8 mg/kg) group (n=3/group), were administered a single dose of Compound A. Compound A was prepared for IA administration in two separate vehicles: vehicle 1, cremophor:ethanol:water (10:10:80), and vehicle 2, ethanol:phosphate buffer, 0.05 M, pH 7.4 (6:94). The vehicle for the oral administration was ethanol:phosphate buffer, 0.3 M, pH 8 (18:82). Samples were collected at 10, 15, 30, and 45 min, and at 1, 2, 4, 6, 8, 10, 24, and 48 hours after dosing.

in vitro = conditions: human, Caco-2
[9] = test system: tubulin isolated from calf brain; type: biochemical
[10] = 40 mg/m2, oral, 40 mg/m^2, n=10

SMILES: C/C(=C\c1csc(CN)n1)[C@@H]1C[C@@H]2O[C@]2(C)CCC[C@H](C)[C@H](O)[C@@H](C)C(=O)C(C)(C)[C@@H](O)CC(=O)O1 (relative stereo) [Compound A, [1S-[1R*,3R*(E),7R*,10S*,11R*,12R*,16S*]]-3-[2-[2-(aminomethyl)-4-thiazolyl]-1-methylethenyl]-7,11-dihydroxy-8,8,10,12,16-pentamethyl-4,17-dioxabicyclo[14.1.0]heptadecane-5,9-dione]
- AUC [1, 10]: 631 ng·h/mL
- Cmax [1, 10]: 177 ng/mL
- half-life ([1]; 40 mg/m2, oral, 40 mg/m^2, n=10, read-out: Half-Life (SD) (converted)): 29.8 h
- Tmax ([1]; 40 mg/m2, oral, 40 mg/m^2, n=10, read-out: Tmax, median (minimum, maximum)): 1 h
- bioavailability ([1]; oral vs IV, 40 mg/m^2, n = 9, read-out: Bioavailability (SD)): 27%
- CLT ([2]; IV 0.5 mg/kg): about 25.7 mL/min/kg
- T-HALF ([2]; IV 0.5 mg/kg): 3.9 h
- Vd ([2]; male, beagle, dog, plasma, IV 0.5 mg/kg, read-out: VSS): 4.7 L/kg
- bioavailability ([2]; male, beagle, dog, plasma, oral 1 mg/kg vs IV 0.5 mg/kg, read-out: mean absolute oral bioavailability): 40%
- T-HALF ([2]; oral 1 mg/kg): 3.1 h
- time solutions are stable after final dilution [3]: ≤ 24 h
- LCK ([4]; A2780 in nude rats, IV, every 8 days×2, at MTD): 0.7
- MTD ([4]; nude rats bearing A2780, IV, every 8 days×2): 3 mg/kg/inj
- Vd (Pharmacokinetics in mice; mouse, plasma, IV 5 mg/kg, read-out: VSS): 38 L/kg
- bioavailability (Pharmacokinetics in mice; mouse, plasma, oral 15 mg/kg vs IV 5 mg/kg, read-out: absolute oral bioavailability): 21%
- CLT (Pharmacokinetics in mice; IV 5 mg/kg): 152 mL/min/kg
- T-HALF (Pharmacokinetics in mice; IV 5 mg/kg): 3.3 h
- T-HALF (Pharmacokinetics in mice; oral 15 mg/kg): 3.3 h
- effect of CYP3A4 inhibitors (troleandomycin, ketoconazole) on biotransformation (CYP3A4): completely inhibited
- rate of oxidative metabolism [5]: 0.06
- apparent steady-state concentrations ([6]; doses of 2 and 4 mg/kg, 10-h IV infusion, mouse plasma): 18-31 ng/mL and 35-60 nM
- MEC ([6]; estimated from plasma Css, 10-hr IV infusion, Pat-7 model): 35 to 60 nM
- drug related material in bile [7]: No drug related material was detected
- percent of the dose recovered in the urine as parent ([7]; iv, 2 mg/kg): approximately 18%
- percent of the dose recovered in the urine as parent ([7]; po, 8 mg/kg): ~2.4%
- increase in systemic exposure with cremophor vehicle [8]: about 4 fold
- Papp at 200 μM (in vitro): 6 ×10⁻⁶ cm/s
- Polymerization Potency, EC0.01 [9]: 7.4 µM
- Ratio of Polymerization Potency of Analog/Paclitaxel [9]: 1.7
